Patent US9936700B2, “Substituted quinoxaline derivatives as pest control agent” (BAYER CROPSCIENCE AKTIENGESELLSCHAFT, priority 2013, dated 2018)
Where two headings read alike, the source gives them in different places.

Legend:
[1] = test system: Phaedon cochleariae; assay: Phaedon cochleariae spray test (PHAECO); type: in vivo; conditions: 500 g/ha, Chinese cabbage leaf discs, after 7 days
Description: Phaedon cochleariae—spray test (PHAECO)
• Solvent: 78.0 parts by weight of acetone • 1.5 parts by weight of dimethylformamide • Emulsifier: 0.5 part by weight of alkylaryl polyglycol ether
After 7 days, the efficacy in % is determined. 100% means that all the beetle larvae have been killed; 0% means that no beetle larvae have been killed.

[2] = test system: Meloidogyne incognita; conditions: 20 ppm, lettuce, after 14 days
Description: Meloidogvne incognita test (MELGIN)
• Solvent: 125.0 parts by weight of acetone
The lettuce seeds germinate and the plants develop. The galls develop on the roots.
After 14 days, the nematicidal efficacy in % is determined by the formation of galls.

[3] = test system: Myzus persicae; assay: Myzus persicae spray test (MYZUPE); type: in vivo; conditions: Chinese cabbage leaf discs, after 6 days
Description: Myzus persicae—spray test (MYZUPE)
• Solvent: 78 parts by weight of acetone • 1.5 parts by weight of dimethylformamide • Emulsifier: 0.5 part by weight of alkylaryl polyglycol ether
After 6 days, the efficacy in % is determined. 100% means that all the aphids have been killed; 0% means that no aphids have been killed.

[4] = test system: Bemisia tabaci; assay: Bemisia tabaci spray test; type: in vivo; conditions: 100 ppm, cotton plants, after 8 days
Description: Bemisia Tabaci—Spray Test
(§1) • Solvent: 7 parts by weight of dimethylformamide • Emulsifier: alkylaryl polyglycol ether
(§2) To produce further test concentrations, the preparation is diluted with emulsifier-containing water. If the addition of ammonium salts or/and penetrants is required, these are each added in a concentration of 1000 ppm to the formulation solution.
After 8 days, the efficacy in % is determined. 100% means that all the whiteflies have been killed; 0% means that none of the whiteflies have been killed.

[5] = log P by reversed-phase HPLC (EEC Directive 79/831 Annex V.A8); type: physicochemical
Excerpt: NMR data and log P values: log P (HCOOH)=log P[a] log P (neutral)=log P[b]
^[a] […] Called log P (HCOOH) in the table.
^[b] […] Called log P (neutral) in the table.

[6] = test system: Nilaparvata lugens; conditions: 500 g/ha, rice plants, after 4 days
Description: (§3) Nilaparvata lugens—spray test
• Solvent: 52.5 parts by weight of acetone • 7 parts by weight of dimethylformamide • Emulsifier: alkylaryl polyglycol ether
To produce further test concentrations, the preparation is diluted with emulsifier-containing water.
After 4 days, the efficacy in % is determined. 100% means that all of the planthoppers have been killed; 0% means that none of the planthoppers have been killed.

[7] = test system: Boophilus microplus; assay: Boophilus microplus test (BOOPMI injection); type: in vivo; conditions: 20 μg/animal, injection into the abdomen, after 7 days
Description: Boophilus microplus test (BOOPMI injection) • Solvent: dimethyl sulfoxide To produce a suitable preparation of active compound, 10 mg of active compound are mixed with 0.5 ml of solvent and the concentrate is diluted with solvent to the desired concentration. The active compound solution is injected into the abdomen (Boophilus microplus), and the animals are transferred into dishes and stored in a climate-controlled room. Efficacy is assessed after 7 days by laying of fertile eggs. Eggs which are not visibly fertile are stored in a climate-controlled cabinet until the larvae hatch after about 42 days.

[8] = test system: Nilaparvata lugens; assay: Nilaparvata lugens spray test (solvent dimethylformamide, 7 days); type: in vivo; conditions: 100 ppm, rice plants, after 7 days
Description: as §3
If the addition of ammonium salts or/and penetrants is required, these are each added in a concentration of 1000 ppm to the formulation solution.
After 7 days, the efficacy in % is determined.

[9] = test system: Aphis gossypii; assay: Aphis gossypii spray test; type: in vivo; conditions: 100 ppm, cotton plants, after 6 days
Description: Aphis gossypii—spray test
as §1, §2
After 6 days, the kill in % is determined. 100% means that all the aphids have been killed; 0% means that no aphids have been killed.

[10] = test system: Nippostrongylus brasiliensis; conditions: 10 ppm, adult worms, 37° C., OD at 405 nm versus negative control
Description: Nippostrongylus brasiliensis test (NIPOBR)
Test method for in vitro experiments with Nippostrongylus brasiliensis
Adult Nippostrongylus brasiliensis is isolated from the small intestine of female Wistar rats and transferred into buffer solution containing 100 U/ml penicillin, 0.1 mg/ml streptomycin and 2.5 μg/ml amphotericin B.
The incubation of the worms (both sexes) is carried out in 1.0 ml of the medium also used for determining the acetylcholinesterase activity.
The compounds are dissolved in DMSO and added to the incubation medium such that final concentrations of 10 and 1 μg/ml, respectively, are present. The controls contain only DMSO.
Incubation is carried out at 37° C. and 5% CO2.
The enzyme determination is carried out using an aliquot of the medium. The AChE to be measured cleaves the substrate acetylthiocholine iodide (which is present as the iodide salt) into the products acetate and thiocholine.
In the subsequent reaction, thiocholine forms, with dithionitrobenzoic acid (DTNB, Ellman's reagent), a yellow dye (thionitrobenzoate).
The intensity of the color (=activity of AChE) is determined via the optical density (OD) photometrically at 405 nm and compared to the OD of the negative control.

[11] = test system: Cooperia curticei; assay: Cooperia curticei test (COOPCU); type: in vivo; conditions: after 5 days
Description: Cooperia curticei test (COOPCU)
• Solvent: dimethyl sulfoxide
To produce a suitable preparation of active compound, 10 mg of active compound are mixed with 0.5 ml of dimethyl sulfoxide and the concentrate is diluted with “Ringer's solution” to the desired concentration.
Vessels containing the active compound preparation of the desired concentration are populated with about 40 nematode larvae (Cooperia curticei).
After 5 days, the kill in % is determined. 100% means that all the larvae have been killed; 0% means that none of the larvae have been killed.

[12] = test system: Haemonchus contortus; assay: Haemonchus contortus test (HAEMCO); type: in vivo; conditions: after 5 days
Excerpt: Haemonchus contortus-test ([…]) • Solvent: dimethyl sulfoxide […] Vessels containing the active compound preparation of the desired concentration are populated with about 40 larvae of the red stomach worm (Haemonchus contortus).

[13] = test system: Spodoptera frugiperda; assay: Spodoptera frugiperda spray test (SPODFR); type: in vivo; conditions: 500 g/ha, maize leaf discs, after 7 days
Description: Spodoptera frugiperda—spray test (SPODFR)
• Solvent: 78.0 parts by weight of acetone • 1.5 parts by weight of dimethylformamide • Emulsifier: 0.5 parts by weight of alkylaryl polyglycol ether
After 7 days, the efficacy in % is determined. 100% means that all the caterpillars have been killed; 0% means that no caterpillars have been killed.

[14] = acidic range, pH 2.7, 0.1% aqueous formic acid/acetonitrile
[15] = neutral range, pH 7.8, aqueous ammonium hydrogencarbonate/acetonitrile

Compound	efficacy (aphids killed) ([3]; 500 g/ha) [%]	efficacy (whiteflies killed) [4] [%]	logP [a] = log P (HCOOH) [5, 14]	logP [b] = log P (neutral) [5, 15]	logP [a] = log P (HCOOH) ([5]; pH 2.7)	logP [b] = log P (neutral) ([5]; pH 7.8)	efficacy (kill of aphids) [9] [%]	other results
FC(F)(F)c1ccc2nc(-c3ccncc3)cnc2c1 [Example I-7]	90	100	2.17	2.75	–	–	–	efficacy (beetle larvae killed) [1]: 100%; nematicidal efficacy (formation of galls) [2]: 90%; efficacy (planthoppers killed) [6]: 90%; efficacy (laying of fertile eggs) [7]: 80%
Cc1cnccc1-c1cnc2ccc(C(F)(F)F)cc2n1 [Example I-30]	–	100	–	–	2.12	2.89	100	efficacy (planthoppers killed) [8]: 80%
FC(F)(F)c1ccc2nc(-c3cccnc3)cnc2c1 [Example I-8]	–	–	2.46	–	–	–	–	efficacy (category of AChE inhibition) [10]: 84% (84% (60-84% inhibition)); efficacy (kill of larvae) ([11]; 100 ppm): 100%; efficacy (kill of larvae) ([12]; 100 ppm): 100%
FC(F)(F)c1ccc2ncc(-c3ccncc3)nc2c1 [Example I-9]	90	–	2.13	2.75	–	–	85	efficacy (beetle larvae killed) [1]: 100%; efficacy (category of AChE inhibition) [10]: 100% (100% (>84-100% inhibition)); efficacy (kill of larvae) ([11]; 100 ppm): 100%; efficacy (kill of larvae) ([12]; 100 ppm): 100%
Cc1cnccc1-c1cnc2cc3c(cc2n1)OC(F)(F)O3 [Example I-32]	90	–	–	–	1.99	2.85	90	efficacy (kill of larvae) ([11]; 20 ppm): 80%; efficacy (kill of larvae) ([12]; 20 ppm): 80%
FC1(F)Oc2cc3nc(Cl)c(-c4ccc(Cl)cc4)nc3cc2O1 [Example I-4, 6-Chloro-7-(4-chlorophenyl)-2,2-difluoro[1,3]dioxolo[4,5-g]quinoxaline]	–	–	–	–	–	–	–	chromatographic logP ([5]; reversed-phase C18 HPLC column, acidic range, pH 2.7, 0.1% aqueous formic acid/acetonitrile, read-out: logP [a] = log P (HCOOH)): 5.27; efficacy (kill of larvae) ([12]; 20 ppm): 80%
CCS(=O)(=O)c1ccccc1-c1cnc2cc(Cl)ccc2n1 [Example I-29]	–	–	–	–	2.81	2.82	–	efficacy (caterpillars killed) [13]: 83%
Clc1ccc2nc(-c3cccnc3)cnc2c1 [Example I-40]	–	–	2.01	2.43	–	–	–	efficacy (kill of larvae) ([11]; 20 ppm): 90%
COc1cnccc1-c1cnc2cc(C(F)(F)F)ccc2n1 [Example I-11]	–	100	–	–	2.59	–	100	efficacy (aphids killed) ([3]; 750 g/ha): 90%; efficacy (planthoppers killed) [8]: 90%
